Results on 15 compounds are retold here after ChEMBL document CHEMBL1795236, “Design and synthesis of protein-protein interaction mimics as Plasmodium falciparum cysteine protease, falcipain-2 inhibitors” (Eur J Med Chem, 2011).

Calls of active or inactive are those of the source. The calls are words filed in the database; no cut-off is given here. Peptide text beside a SMILES is read from it.

Experiment [1] concerns Plasmodium falciparum. Kind of experiment: Inhibition of Plasmodium falciparum recombinant falcipain 2 using fluorogenic ZFR-AMC substrate at 5 uM after 30 mins by fluorimetric assay.
Experiment [2] concerns Plasmodium falciparum. Kind of experiment: Antimalarial activity against Plasmodium falciparum infected in human RBC assessed as swollen food vacuole at early trophozoite stage at 200 nM after 48 hrs by Giemsa staining based microscopy. The format is functional, organism-based.
Experiment [3] has as its system Plasmodium falciparum. Kind of experiment: Antimalarial activity against Plasmodium falciparum infected in human RBC assessed as clumps of malarial pigment at 200 nM after 48 hrs by Giemsa staining based microscopy. The format is functional, organism-based.
For experiment [4], the system named is Plasmodium falciparum. Kind of experiment: Antimalarial activity against Plasmodium falciparum infected in human RBC assessed as abnormal schizonts at 200 nM after 48 hrs by Giemsa staining based microscopy. It counts as functional, organism-based.
The nature of experiment [5]: (§1) Inhibition of Plasmodium falciparum recombinant refolded falcipain 2 activity using ZFR-AMC as a substrate after 30 mins by fluorimetric assay.
The subject of experiment [6] is Plasmodium falciparum. The description is as §1.

As to `CC[C@H](C)[C@H](NC(=O)CNC(=O)[C@H](CO)NC(=O)[C@@H](NC(=O)[C@H](CC(C)C)NC(=O)[C@H](CCC(N)=O)NC(=O)[C@@H]1CSSC[C@H](NC(=O)[C@@H]2CCCN2C(=O)[C@H](C)NC(=O)CNC(=O)[C@H](CC(C)C)NC(=O)[C@H](CC(C)C)NC(=O)[C@@H](N)CCCNC(=N)N)C(=O)NCCCC(=O)N1)C(C)C)C(N)=O` (HELM PEPTIDE1{R.L.L.G.A.P.C.[O=C(CCCN[*:1])[*:2]].C.Q.L.V.S.G.I.[am]}$PEPTIDE1,PEPTIDE1,7:R3-9:R3$$$V2.0), the inhibition – broadly, the change of the read-out against control, counted positive when it falls – in experiment [1] came out at 39%.
Consider `CC[C@H](C)[C@H](NC(=O)CNC(=O)[C@H](CO)NC(=O)[C@@H](NC(=O)[C@H](CC(C)C)NC(=O)[C@H](CCC(N)=O)NC(=O)[C@H](CCCNC(=N)N)NC(=O)CCCNC(=O)[C@@H](NC(=O)[C@@H]1CCCN1C(=O)[C@H](C)NC(=O)CNC(=O)[C@H](CC(C)C)NC(=O)[C@H](CC(C)C)NC(=O)[C@@H](N)CCCNC(=N)N)C(C)C)C(C)C)C(N)=O` (HELM PEPTIDE1{R.L.L.G.A.P.V.[O=C(CCCN[*:1])[*:2]].R.Q.L.V.S.G.I.[am]}$$$$V2.0), for which the outcome in experiment [2], in experiment [3] and in experiment [4] was Active. For the same compound, in experiment [5], the Ki (usually the equilibrium dissociation constant of an inhibitor or competing ligand from its target) was determined as 2500 nM. For the same compound, in experiment [1], the inhibition was 57%.
Take `CC[C@H](C)[C@H](NC(=O)CNC(=O)[C@H](CO)NC(=O)[C@@H](NC(=O)[C@H](CC(C)C)NC(=O)[C@H](CCC(N)=O)NC(=O)[C@H](CCCNC(=N)N)NC(=O)[C@H]1CC[C@@H](NC(=O)[C@@H](NC(=O)[C@@H]2CCCN2C(=O)[C@H](C)NC(=O)CNC(=O)[C@H](CC(C)C)NC(=O)[C@H](CC(C)C)NC(=O)[C@@H](N)CCCNC(=N)N)C(C)C)CC1)C(C)C)C(=O)NCCC(=O)NCCC(=O)N1CCC[C@H]1C(=O)N[C@@H](Cc1c[nH]c2ccccc12)C(N)=O` (HELM PEPTIDE1{R.L.L.G.A.P.V.[O=C([C@H]1CC[C@@H](N[*:1])CC1)[*:2]].R.Q.L.V.S.G.I.[bAla].[bAla].P.W.[am]}$$$$V2.0): the outcome in experiment [2], in experiment [3] and in experiment [4] was Active. Further, the inhibition constant (Ki) in experiment [5] came to 2500 nM. Further, the inhibition in experiment [1] stood at 60%.
For `CC[C@H](C)[C@H](NC(=O)CNC(=O)[C@H](CO)NC(=O)[C@@H](NC(=O)[C@H](CC(C)C)NC(=O)[C@H](CCC(N)=O)NC(=O)[C@H]1CC[C@@H](NC(=O)[C@@H]2CCCN2C(=O)[C@H](C)NC(=O)CNC(=O)[C@H](CC(C)C)NC(=O)[C@H](CC(C)C)NC(=O)[C@@H](N)CCCNC(=N)N)CC1)C(C)C)C(=O)NCCC(=O)NCCC(=O)N1CCC[C@H]1C(=O)N[C@@H](Cc1c[nH]c2ccccc12)C(N)=O` (HELM PEPTIDE1{R.L.L.G.A.P.[O=C([C@H]1CC[C@@H](N[*:1])CC1)[*:2]].Q.L.V.S.G.I.[bAla].[bAla].P.W.[am]}$$$$V2.0), the outcome in experiment [2], in experiment [3] and in experiment [4] was Active. For the same compound, the inhibition in experiment [1] came out at 57%.
In the case of `CC(C)C[C@H](NC(=O)[C@H]1O[C@@H]1C(=O)O)C(=O)NCCCCN=C(N)N`, the inhibition result in experiment [6] was “Active”.
As for `CC[C@H](C)[C@H](NC(=O)CNC(=O)[C@H](CO)NC(=O)[C@@H](NC(=O)[C@H](CC(C)C)NC(=O)[C@H](CCC(N)=O)NC(=O)CCCNC(=O)[C@@H]1CCCN1C(=O)[C@H](C)NC(=O)CNC(=O)[C@H](CC(C)C)NC(=O)[C@H](CC(C)C)NC(=O)[C@@H](N)CCCNC(=N)N)C(C)C)C(=O)NCCC(=O)NCCC(=O)N1CCC[C@H]1C(=O)N[C@@H](Cc1c[nH]c2ccccc12)C(N)=O` (HELM PEPTIDE1{R.L.L.G.A.P.[O=C(CCCN[*:1])[*:2]].Q.L.V.S.G.I.[bAla].[bAla].P.W.[am]}$$$$V2.0), the inhibition in experiment [1] is 32%.
Turning to Ac-RQLVSGI-NH2, in experiment [1], the inhibition is 10%.
Turning to `CC[C@H](C)[C@H](NC(=O)CNC(=O)[C@H](CO)NC(=O)[C@@H](NC(=O)[C@H](CC(C)C)NC(=O)[C@H](CCC(N)=O)NC(=O)[C@H]1CC[C@@H](NC(=O)[C@@H]2CCCN2C(=O)[C@H](C)NC(=O)CNC(=O)[C@H](CC(C)C)NC(=O)[C@H](CC(C)C)NC(=O)[C@@H](N)CCCNC(=N)N)CC1)C(C)C)C(N)=O` (HELM PEPTIDE1{R.L.L.G.A.P.[O=C([C@H]1CC[C@@H](N[*:1])CC1)[*:2]].Q.L.V.S.G.I.[am]}$$$$V2.0), the outcome in experiment [2], in experiment [3] and in experiment [4] was Active. Besides, in experiment [1], the inhibition stood at 50%.
On to `CC(=O)N[C@@H](CC(C)C)C(=O)N[C@@H](CC(C)C)C(=O)N[C@H](C=O)CCCNC(=N)N`, for which the inhibition entry in experiment [6] is “Active”.
Take `CC[C@H](C)[C@H](NC(=O)CNC(=O)[C@H](CO)NC(=O)[C@@H](NC(=O)[C@H](CC(C)C)NC(=O)[C@@H]1CSSC[C@H](NC(=O)[C@H](C)NC(=O)CNC(=O)[C@H](CC(C)C)NC(=O)[C@H](CC(C)C)NC(=O)[C@@H](N)CCCNC(=N)N)C(=O)NCCCC(=O)N1)C(C)C)C(N)=O` (HELM PEPTIDE1{R.L.L.G.A.C.[O=C(CCCN[*:1])[*:2]].C.L.V.S.G.I.[am]}$PEPTIDE1,PEPTIDE1,6:R3-8:R3$$$V2.0): the inhibition in experiment [1] was 39%.
In the case of `CC[C@H](C)[C@H](NC(=O)CNC(=O)[C@H](CO)NC(=O)[C@@H](NC(=O)[C@H](CC(C)C)NC(=O)[C@H](CCC(N)=O)NC(=O)[C@@H]1CSSC[C@H](NC(=O)[C@@H]2CCCN2C(=O)[C@H](C)NC(=O)CNC(=O)[C@H](CC(C)C)NC(=O)[C@H](CC(C)C)NC(=O)[C@@H](N)CCCNC(=N)N)C(=O)NCCCC(=O)N1)C(C)C)C(=O)NCCC(=O)NCCC(=O)N1CCC[C@H]1C(=O)N[C@@H](Cc1c[nH]c2ccccc12)C(N)=O` (HELM PEPTIDE1{R.L.L.G.A.P.C.[O=C(CCCN[*:1])[*:2]].C.Q.L.V.S.G.I.[bAla].[bAla].P.W.[am]}$PEPTIDE1,PEPTIDE1,7:R3-9:R3$$$V2.0), the inhibition in experiment [1] is 39%.
In the case of H-RLLGAPV-NH2, the result in experiment [2], in experiment [3] and in experiment [4] was Active. For the same compound, the inhibition in experiment [1] was determined as 5%.
Turning to `CC[C@H](C)[C@H](NC(=O)CNC(=O)[C@H](CO)NC(=O)[C@@H](NC(=O)[C@H](CC(C)C)NC(=O)[C@H](CCC(N)=O)NC(=O)[C@H](CCCNC(=N)N)NC(=O)CCCNC(=O)[C@@H](NC(=O)[C@@H]1CCCN1C(=O)[C@H](C)NC(=O)CNC(=O)[C@H](CC(C)C)NC(=O)[C@H](CC(C)C)NC(=O)[C@@H](N)CCCNC(=N)N)C(C)C)C(C)C)C(=O)NCCC(=O)NCCC(=O)N1CCC[C@H]1C(=O)N[C@@H](Cc1c[nH]c2ccccc12)C(N)=O` (HELM PEPTIDE1{R.L.L.G.A.P.V.[O=C(CCCN[*:1])[*:2]].R.Q.L.V.S.G.I.[bAla].[bAla].P.W.[am]}$$$$V2.0), the result in experiment [2], in experiment [3] and in experiment [4] was Active. The inhibition in experiment [1] worked out at 49%.
Regarding `CC[C@H](C)[C@H](NC(=O)CNC(=O)[C@H](CO)NC(=O)[C@@H](NC(=O)[C@H](CC(C)C)NC(=O)[C@H](CCC(N)=O)NC(=O)[C@H](CCCNC(=N)N)NC(=O)[C@H]1CC[C@@H](NC(=O)[C@@H](NC(=O)[C@@H]2CCCN2C(=O)[C@H](C)NC(=O)CNC(=O)[C@H](CC(C)C)NC(=O)[C@H](CC(C)C)NC(=O)[C@@H](N)CCCNC(=N)N)C(C)C)CC1)C(C)C)C(N)=O` (HELM PEPTIDE1{R.L.L.G.A.P.V.[O=C([C@H]1CC[C@@H](N[*:1])CC1)[*:2]].R.Q.L.V.S.G.I.[am]}$$$$V2.0), the outcome in experiment [2], in experiment [3] and in experiment [4] was Active. Also, the inhibitory constant (Ki) in experiment [5] was 2000 nM. Besides, the inhibition in experiment [1] turned out to be 63%.
Turning to `CC[C@H](C)[C@H](NC(=O)CNC(=O)[C@H](CO)NC(=O)[C@@H](NC(=O)[C@H](CC(C)C)NC(=O)[C@H](CCC(N)=O)NC(=O)CCCNC(=O)[C@@H]1CCCN1C(=O)[C@H](C)NC(=O)CNC(=O)[C@H](CC(C)C)NC(=O)[C@H](CC(C)C)NC(=O)[C@@H](N)CCCNC(=N)N)C(C)C)C(N)=O` (HELM PEPTIDE1{R.L.L.G.A.P.[O=C(CCCN[*:1])[*:2]].Q.L.V.S.G.I.[am]}$$$$V2.0), the outcome in experiment [2], in experiment [3] and in experiment [4] was Active. Moreover, in experiment [1], the inhibition is 44%.
